Values joined by “and” are separate entries in the source; they are usually repeats but may differ in a detail not shown here. Equal values may be shown once. Toxic doses and inconclusive results are not listed. Where a SMILES comes first, the peptide text is derived from it.
Tested on: B6C3F1 mice, B16 melanoma ip, median survival T/C
Test: NCI In Vivo Anticancer Drug Screen. Data for tumor model B16 Melanoma (intraperitoneal) in B6C3F1 mice
Details: endpoint: median survival time, higher = longer survival
Outline: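 Mice bearing transplanted tumor were dosed with compound or vehicle, and survival was recorded. Activity is expressed as the treated-group measurement (T) divided by the vehicle control measurement (C).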

[1] = dose: 6.25 mg/kg/injection, schedule: Q01DX009 (ip), vehicle: Klucel (hydroxypropylcellulose) (HPC)
[2] = dose: 12.5 mg/kg/injection, schedule: Q01DX009 (ip), vehicle: Klucel (hydroxypropylcellulose) (HPC)
[3] = dose: 50.0 mg/kg/injection, schedule: Q01DX009 (ip), vehicle: Klucel (hydroxypropylcellulose) (HPC)
[4] = dose: 100.0 mg/kg/injection, schedule: Q01DX009 (ip), vehicle: Klucel (hydroxypropylcellulose) (HPC)
[5] = dose: 200.0 mg/kg/injection, schedule: Q01DX009 (ip), vehicle: Klucel (hydroxypropylcellulose) (HPC)
[6] = dose: 1.5 mg/kg/injection, schedule: Q01DX009 (ip), vehicle: Klucel (hydroxypropylcellulose) (HPC)
[7] = dose: 12.5 mg/kg/injection, schedule: Q01DX009 (ip), vehicle: saline with Tween-80
[8] = dose: 25.0 mg/kg/injection, schedule: Q01DX009 (ip), vehicle: saline with Tween-80
[9] = dose: 50.0 mg/kg/injection, schedule: Q01DX009 (ip), vehicle: saline with Tween-80
[10] = dose: 100.0 mg/kg/injection, schedule: Q01DX009 (ip), vehicle: saline
[11] = dose: 200.0 mg/kg/injection, schedule: Q01DX009 (ip), vehicle: saline
[12] = dose: 400.0 mg/kg/injection, schedule: Q01DX009 (ip), vehicle: saline

Structure (SMILES): ClCCCN1CCN(CCCCl)CC1
- T/C (dose: 6.25 mg/kg/injection, schedule: Q01DX009 (ip), vehicle: distilled water + alcohol): 109 % of control and 98 % of control
- T/C (dose: 12.5 mg/kg/injection, schedule: Q01DX009 (ip), vehicle: distilled water + alcohol): 102 % of control and 104 % of control
- T/C (dose: 25.0 mg/kg/injection, schedule: Q01DX009 (ip), vehicle: distilled water + alcohol): 108 % of control and 105 % of control
- T/C (dose: 50.0 mg/kg/injection, schedule: Q01DX009 (ip), vehicle: distilled water + alcohol): 118 % of control and 107 % of control
- T/C (dose: 100.0 mg/kg/injection, schedule: Q01DX009 (ip), vehicle: distilled water + alcohol): 115 % of control and 118 % of control

Structure (SMILES): CC(C)NC(=O)N(CCCCBr)N=O
- T/C [1]: 98 % of control
- T/C (dose: 12.0 mg/kg/injection, schedule: Q01DX009 (ip), vehicle: Klucel (hydroxypropylcellulose) (HPC)): 118 % of control
- T/C [2]: 98 % of control and 102 % of control
- T/C (dose: 25.0 mg/kg/injection, schedule: Q01DX009 (ip), vehicle: Klucel (hydroxypropylcellulose) (HPC)): 99 % of control and 102 % of control
- T/C [3]: 116 % of control and 106 % of control
- T/C [4]: 88 % of control and 96 % of control
- T/C [5]: 102 % of control

Structure (SMILES): C/C=C/C=C\C=C/C(O)CC(OP(=O)(O)O)C(C)(O)/C=C/C1CC=CC(=O)O1 (stereo not drawn)
- T/C (dose: 0.38 mg/kg/injection, schedule: Q01DX009 (ip), vehicle: water): 107 % of control
- T/C (dose: 0.75 mg/kg/injection, schedule: Q01DX009 (ip), vehicle: water): 117 % of control (2×) and 123 % of control
- T/C (dose: 6.0 mg/kg/injection, schedule: Q01DX009 (ip), vehicle: water): 157 % of control and 184 % of control

Structure (SMILES): Cc1c(N)nc(C(CC(N)=O)NCC(N)C(N)=O)nc1C(=O)NC(C(=O)NC(C)C(O)CC(=O)NC(C(=O)NC(OC1OC(C)C(N)C(O)C1O)C(O)c1nc(-c2nc(C(=O)NCCCC(N)CC(=O)NCCCNCCCCN)cs2)cs1)C(C)O)C(OC1OC(CO)C(O)C(O)C1OC1OC(CO)C(O)C(OC(N)=O)C1O)c1cnc[nH]1 (stereo not drawn)
- T/C (dose: 0.5 mg/kg/injection, schedule: Q01DX009 (ip), vehicle: saline): 120 % of control

Structure (SMILES): C[C@H](N)C(=O)N[C@@H]1[C@H]2C(=C(O)C[C@@H](O)[C@@H]2O)C(=O)O[C@]1(C)C(Cl)Cl
- T/C (dose: 0.18 mg/kg/injection, schedule: Q01DX009 (ip), vehicle: Klucel (hydroxypropylcellulose) (HPC)): 95 % of control
- T/C (dose: 0.19 mg/kg/injection, schedule: Q01DX009 (ip), vehicle: Klucel (hydroxypropylcellulose) (HPC)): 100 % of control
- T/C (dose: 0.37 mg/kg/injection, schedule: Q01DX009 (ip), vehicle: Klucel (hydroxypropylcellulose) (HPC)): 101 % of control and 107 % of control
- T/C (dose: 0.38 mg/kg/injection, schedule: Q01DX009 (ip), vehicle: Klucel (hydroxypropylcellulose) (HPC)): 105 % of control
- T/C (dose: 0.75 mg/kg/injection, schedule: Q01DX009 (ip), vehicle: Klucel (hydroxypropylcellulose) (HPC)): 116 % of control and 104 % of control (2×)
- T/C [6]: 112 % of control and 113 % of control and 118 % of control

Structure (SMILES): Cc1cc(=O)n2c3c(c4c(cc13)c(CN(C)C)cc(=O)n4C)OC2
- T/C (dose: 6.25 mg/kg/injection, schedule: Q01DX009 (ip), vehicle: saline with Tween-80): 105 % of control
- T/C [7]: 98 % of control
- T/C [8]: 100 % of control
- T/C [9]: 111 % of control

Structure (SMILES): C/C(=N\NC(=O)c1ccccc1O)c1cccc(/C(C)=N/NC(=O)c2ccccc2O)n1
- T/C (dose: 3.0 mg/kg/injection, schedule: Q01DX009 (ip), vehicle: saline): 102 % of control
- T/C (dose: 6.0 mg/kg/injection, schedule: Q01DX009 (ip), vehicle: saline): 96 % of control

Structure (SMILES): C[C@]12CCC(=O)C=C1CC[C@@H]1[C@@H]2C(=O)C[C@@]2(C)[C@H]1CC[C@]2(O)C(=O)CO
- T/C [3]: 106 % of control
- T/C [4]: 93 % of control
- T/C [5]: 108 % of control
- T/C (dose: 400.0 mg/kg/injection, schedule: Q01DX009 (ip), vehicle: Klucel (hydroxypropylcellulose) (HPC)): 117 % of control

Structure (SMILES): NC(N)=NCCCC(N)C(=O)NCC(=O)NCC(=O)O (stereo not drawn) (HELM PEPTIDE1{[N=C(N)NCCCC(N)C(=O)[*:2]].G.G}$$$$V2.0)
- T/C [10]: 107 % of control
- T/C [11]: 102 % of control
- T/C [12]: 111 % of control

Structure (SMILES): Clc1ccc(C[P+](c2ccccc2)(c2ccccc2)c2ccccc2)cc1Cl
- T/C (dose: 0.78 mg/kg/injection, schedule: Q01DX009 (ip), vehicle: Klucel (hydroxypropylcellulose) (HPC)): 99 % of control
- T/C (dose: 1.56 mg/kg/injection, schedule: Q01DX009 (ip), vehicle: Klucel (hydroxypropylcellulose) (HPC)): 107 % of control
- T/C (dose: 3.12 mg/kg/injection, schedule: Q01DX009 (ip), vehicle: Klucel (hydroxypropylcellulose) (HPC)): 103 % of control
- T/C [2]: 88 % of control

Structure (SMILES): COC1CC2C=C(C)/C=C/C=C/C(=O)NC(c3ccccc3)C/C=C/CCC(O)CC(=O)C2=C1O (stereo not drawn)
- T/C [6]: 108 % of control
- T/C (dose: 3.0 mg/kg/injection, schedule: Q01DX009 (ip), vehicle: Klucel (hydroxypropylcellulose) (HPC)): 110 % of control and 119 % of control and 123 % of control
- T/C (dose: 3.13 mg/kg/injection, schedule: Q01DX009 (ip), vehicle: Klucel (hydroxypropylcellulose) (HPC)): 104 % of control
- T/C [1]: 109 % of control

Structure (SMILES): O=C(NO)c1ccc(O)c(O)c1
- T/C (dose: 22.5 mg/kg/injection, schedule: Q03HX024 (ip), vehicle: water): 106 % of control
- T/C (dose: 25.0 mg/kg/injection, schedule: Q01DX009 (ip), vehicle: water): 100 % of control
- T/C (dose: 45.0 mg/kg/injection, schedule: Q03HX024 (ip), vehicle: water): 111 % of control
- T/C (dose: 50.0 mg/kg/injection, schedule: Q01DX009 (ip), vehicle: water): 109 % of control and 100 % of control
- T/C (dose: 60.0 mg/kg/injection, schedule: Q01DX009 (ip), vehicle: water): 110 % of control
- T/C (dose: 90.0 mg/kg/injection, schedule: Q03HX024 (ip), vehicle: water): 116 % of control
- T/C (dose: 100.0 mg/kg/injection, schedule: Q01DX009 (ip), vehicle: water): 111 % of control and 116 % of control and 99 % of control
- T/C (dose: 116.0 mg/kg/injection, schedule: Q01DX009 (ip), vehicle: other): 116 % of control
- T/C (dose: 120.0 mg/kg/injection, schedule: Q01DX009 (ip), vehicle: water): 110 % of control
- T/C (dose: 176.0 mg/kg/injection, schedule: Q01DX009 (ip), vehicle: other): 120 % of control
- T/C (dose: 176.0 mg/kg/injection, schedule: Q01DX009 (ip), vehicle: water): 120 % of control
- T/C (dose: 180.0 mg/kg/injection, schedule: Q03HX024 (ip), vehicle: water): 119 % of control
- T/C (dose: 200.0 mg/kg/injection, schedule: Q01DX009 (ip), vehicle: water): 112 % of control and 123 % of control
- T/C (dose: 270.0 mg/kg/injection, schedule: Q03HX024 (ip), vehicle: water): 87 % of control

Structure (SMILES): NCCc1ccc(O)c(O)c1
- T/C (dose: 50.0 mg/kg/injection, schedule: Q01DX009 (ip), vehicle: saline): 96 % of control
- T/C [10]: 106 % of control [middle of 4 runs]
- T/C [11]: 109 % of control [middle of 4 runs]
- T/C [12]: 115 % of control [middle of 4 runs]
- T/C (dose: 500.0 mg/kg/injection, schedule: Q01DX009 (ip), vehicle: saline): 119 % of control
- T/C (dose: 600.0 mg/kg/injection, schedule: Q01DX009 (ip), vehicle: saline): 114 % of control and 112 % of control and 118 % of control
- T/C (dose: 800.0 mg/kg/injection, schedule: Q01DX009 (ip), vehicle: saline): 121 % of control

Structure (SMILES): O=C(O[Si](Cc1ccccc1)(Cc1ccccc1)Cc1ccccc1)N(CCCl)CCCl
- T/C (dose: 6.0 mg/kg/injection, schedule: Q01DX009 (ip), vehicle: saline with Tween-80): 103 % of control
- T/C [7]: 108 % of control
- T/C [8]: 101 % of control and 106 % of control
- T/C [9]: 113 % of control and 106 % of control

Structure (SMILES): O=CC(NC(=O)N(CCF)N=O)C(O)C(O)C(O)CO (stereo not drawn)
- T/C (dose: 30.0 mg/kg/injection, schedule: Q01DX001 (ip), vehicle: saline): 169 % of control
- T/C (dose: 60.0 mg/kg/injection, schedule: Q01DX001 (ip), vehicle: saline): 210 % of control
- T/C (dose: 120.0 mg/kg/injection, schedule: Q01DX001 (ip), vehicle: saline): 204 % of control

Structure (SMILES): Cc1c2cc[n+](CCO)cc2c(C)c2c1[nH]c1ccc(O)cc12
- T/C (dose: 0.31 mg/kg/injection, schedule: Q01DX009 (ip), vehicle: saline): 113 % of control
- T/C (dose: 0.62 mg/kg/injection, schedule: Q01DX009 (ip), vehicle: saline): 91 % of control

From PubChem BioAssay AID200 (DTP/NCI, 2004)
